Legend:
Test in all cases: relative viability (nuclei count vs DMSO), 5 days (fraction); higher = more cells survive
[1] = compound: Cn1cc(-c2cnc3ccc4ccc(CS(=O)(=O)NCc5ccccn5)cc4c(=O)c3c2)cn1 [MK-8033] + CC(=O)c1c(C)c2cnc(Nc3ccc(N4CCNCC4)cn3)nc2n(C2CCCC2)c1=O [Palbociclib] (partner 0.5 µM)
Procedure, shortened: (§1)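 One day after seeding in 1536-well plates, lung cancer cell lines were dosed by pin tool. Dosing was either single-drug or a fixed anchor-drug dose plus five library-drug doses (not always all listed) in √10 steps. After 5 days, nuclei were stained in one fix-and-stain step and counted on 4× images, and relative viability is the nuclei count of treated wells over that of vehicle wells, given as the median of duplicate plates.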

[2] = compound: CCc1c2c(nc3ccc(OC(=O)N4CCC(N5CCCCC5)CC4)cc13)-c1cc3c(c(=O)n1C2)COC(=O)[C@]3(O)CC [Irinotecan] + CC1(C)CCC(c2ccc(Cl)cc2)=C(CN2CCN(c3ccc(C(=O)NS(=O)(=O)c4ccc(N[C@H](CCN5CCOCC5)CSc5ccccc5)c(S(=O)(=O)C(F)(F)F)c4)cc3)CC2)C1 [Navitoclax] (partner 0.5 µM)
Procedure, shortened: as §1

[3] = compound: Cn1cc(-c2cnc3ccc4ccc(CS(=O)(=O)NCc5ccccn5)cc4c(=O)c3c2)cn1 [MK-8033] + CCNC(=O)c1noc(-c2cc(C(C)C)c(O)cc2O)c1-c1ccc(CN2CCOCC2)cc1 [Luminespib] (partner 0.01 µM)
Procedure, shortened: as §1

[4] = compound: Cn1cc(-c2cnc3ccc4ccc(CS(=O)(=O)NCc5ccccn5)cc4c(=O)c3c2)cn1 [MK-8033] + CS(=O)(=O)CCNCc1ccc(-c2ccc3ncnc(Nc4ccc(OCc5cccc(F)c5)c(Cl)c4)c3c2)o1 [Lapatinib] (partner 2 µM)
Procedure, shortened: as §1

Cell Line	relative viability ([1]; first compound 0.02 µM)	relative viability ([1]; first compound 0.06325 µM)	relative viability ([1]; first compound 0.2 µM)	relative viability ([1]; first compound 0.6325 µM)	relative viability ([1]; first compound 2 µM)	relative viability ([2]; first compound 2 µM)	relative viability ([2]; first compound 6.325 µM)	relative viability ([2]; first compound 20 µM)	relative viability ([3]; first compound 0.02 µM)	relative viability ([3]; first compound 0.06325 µM)	relative viability ([3]; first compound 0.2 µM)	relative viability ([3]; first compound 0.6325 µM)	relative viability ([3]; first compound 2 µM)	relative viability ([4]; first compound 0.02 µM)	relative viability ([4]; first compound 0.06325 µM)	relative viability ([4]; first compound 0.2 µM)	relative viability ([4]; first compound 0.6325 µM)	relative viability ([4]; first compound 2 µM)	relative viability ([2]; first compound 0.6325 µM)
201T	0.329	0.37	0.356	0.369	0.367	1.12	0.729	0.451	0.986	1.07	0.957	1.06	1.03	1.03	0.906	0.995	1.07	1.07	
A549						0.639	0.118	0.0499						0.911	0.954	0.967	0.946	1.02	0.997
A-427	0.481	0.552	0.494	0.508	0.492	0.222	0.215	0.172	0.85	0.85	0.83	0.88	0.91	1.05	1.1	0.947	1.1	1.08	
ABC-1	0.664	0.733	0.591	0.724	0.646				0.544	0.545		0.602	0.473	1.19	1.35	0.955	1.1	1.43	
BEN	0.445	0.512	0.435	0.484	0.461	0.0844	0.0937	0.248	0.382	0.419	0.331	0.295	0.455	0.695	0.679	0.649	0.738	0.75	0.0453
CAL-12T	0.44	0.436	0.324	0.579	0.323	1.43	0.491	0.38	0.263	0.305	0.518	0.319	0.53	0.604	0.566	0.601	0.868	0.591	1.32
COR-L23	0.239	0.29	0.27	0.304	0.326	0.261	0.154	0.115	0.696	0.595	0.722	0.661	0.606	1.17	0.997	0.7	0.941	0.901	0.413
COR-L 105	0.429	0.388	0.394	0.464	0.418	0.766	0.529	0.463	0.552	0.79	0.774	0.616	0.677	0.286	0.354	0.32	0.361	0.346	0.721
Calu-6						0.431	0.212	0.0896						1.06	1.03	0.971	1.15	1.19	0.78
ChaGo-K-1	0.981	0.937	0.872	0.974	0.75	0.784	0.407	0.33	0.679	0.696	0.562	0.636	0.516						
EBC-1						0.406	0.378	0.133						0.182	0.218	0.217	0.21	0.203	0.304
EKVX	0.366	0.322	0.362	0.39	0.373	0.74	0.344	0.157	0.888	0.905	0.814	0.889	0.842	0.193	0.195	0.216	0.207	0.255	0.924
EMC-BAC-2	0.519	0.485	0.528	0.511	0.505	0.36	0.202	0.226	1.2	1.07	1.12	1.16	1.12	0.954	0.792	0.859	0.959	0.876	0.705
EPLC-272H	0.299	0.356	0.352	0.274	0.349	0.17	0.144	0.209	0.214	0.339	0.282	0.218	0.475	0.905		0.914	1.05	0.903	0.658
H3255	0.307	0.361	0.309	0.307	0.336	0.279	0.158	0.227	0.864	0.737	0.834	0.896	0.916	0.24	0.233	0.232	0.261	0.226	0.352
HARA	0.229	0.251	0.311	0.296	0.283	0.106	0.123	0.111	0.675	0.621	0.681	1.03	0.557	0.594	0.632	0.763	0.69	0.828	0.658
HCC-15	0.748	0.625	0.722	0.699	0.738	0.209	0.147	0.167	0.281	0.397	0.263	0.253	0.307	0.849	0.801	0.785	0.805	0.856	0.5
HCC-44	0.98	1.01	0.975	1.01	1.01	0.232	0.231	0.27	1.06	1.02	1.01	1.3	1.05	1.02	1.02	0.943	0.999	1	0.904
HCC-78	0.516	0.63	0.451	0.514	0.511	0.525	0.202	0.191						0.765	0.811	0.65		0.94	0.75
HCC-366	0.417	0.343	0.355	0.367	0.351	0.158	0.0415	0.0387						1.04	0.994	0.972	1.05	1.05	0.79
HCC-827	0.49		0.471	0.49	0.545	0.278	0.244	0.237	0.43		0.591	0.59	1.07	0.195		0.188	0.184	0.218	0.591
HOP-62	0.469	0.41	0.425	0.496	0.446	0.598	0.176	0.177	0.938	0.794	0.814	0.941	0.86	1.01	0.753	0.786	1.07	0.987	0.624

Cell Line	relative viability ([1]; first compound 0.02 µM)	relative viability ([1]; first compound 0.06325 µM)	relative viability ([1]; first compound 0.2 µM)	relative viability ([1]; first compound 0.6325 µM)	relative viability ([1]; first compound 2 µM)	relative viability ([2]; first compound 2 µM)	relative viability ([2]; first compound 6.325 µM)	relative viability ([2]; first compound 20 µM)	relative viability ([3]; first compound 0.02 µM)	relative viability ([3]; first compound 0.06325 µM)	relative viability ([3]; first compound 0.2 µM)	relative viability ([3]; first compound 0.6325 µM)	relative viability ([3]; first compound 2 µM)	relative viability ([4]; first compound 0.02 µM)	relative viability ([4]; first compound 0.06325 µM)	relative viability ([4]; first compound 0.2 µM)	relative viability ([4]; first compound 0.6325 µM)	relative viability ([4]; first compound 2 µM)	relative viability ([2]; first compound 0.6325 µM)
IA-LM						0.246	0.15	0.0454						0.682	0.636	0.66	0.633	0.773	0.574
LC-2-ad	0.493	0.453	0.491	0.499	0.488	0.282	0.169	0.167	1.04	0.97		1.08	0.878	1.09	0.915	0.877	1.11	0.806	0.287
LCLC-97TM1	0.243	0.221		0.232	0.216	0.256	0.218	0.163	0.883	0.662	0.709	0.845	0.669	1.35	1.06	0.656	0.957	0.929	0.254
LCLC-103H	0.514	0.51	0.47	0.295	0.491				0.95	0.927	0.954	0.866	0.952						
LK-2	0.623	0.528	0.686	0.885	0.502	0.754	0.406	0.255	0.172		0.265	0.187	0.26	0.968	0.807	0.963	1.1	0.807	0.858
LOU-NH91	0.495	0.523	0.512	0.531	0.53	0.526	0.32	0.275	0.318	0.335	0.349	0.379	0.326	0.785		0.735	0.772	0.745	0.578
LU99A	0.414	0.343	0.398	0.409	0.39	0.231	0.195	0.242	0.24	0.272	0.258	0.177	0.241	1.03	0.892	0.97	0.893	0.764	0.188
LXF-289	0.612	0.579	0.61	0.597	0.596	0.439	0.153	0.175	0.66	0.654	0.591	0.665	0.643	0.902	0.907	0.874	0.917	0.875	0.891
NCI-H358	0.144	0.129	0.128	0.136	0.151				0.417	0.236	0.235	0.296	0.213	0.427	0.317	0.44	0.42	0.456	
NCI-H441	0.182	0.189	0.217	0.275	0.238	0.383	0.304	0.463	0.403	0.375	0.352	0.336	0.305						0.206
NCI-H522	0.968	0.96	1	0.968	1.18				0.987	1.02	0.955	1.29	0.946						
NCI-H596						0.752	0.412	0.443	1.02	0.987	0.802	1.01	0.946	1.12	0.977	1.05	1.02	1.17	0.932
NCI-H650	0.346	0.316	0.324	0.316	0.307				0.827	0.787	0.819	0.833	0.769	0.759	0.966	0.838	0.845	0.921	
NCI-H661	0.389	0.369	0.403	0.397	0.413				0.926	0.938	0.893	0.948	0.872	0.384	0.417	0.482	0.453	0.438	
NCI-H1299						0.845	0.431	0.303						0.989	0.947	0.964	0.965	0.982	0.886
NCI-H1563									0.491	0.589	0.541	0.483	0.539	0.965	0.833	0.966	0.864	0.886	
NCI-H1623									0.4	0.479	0.429	0.498	0.363						
NCI-H1648	0.243		0.296	0.299	0.258														
NCI-H1703						1.45	0.514	0.105						1.04	1.04	0.99	0.912	1.05	1.16
NCI-H2342	0.487	0.548	0.623	0.492	0.526				0.774	0.643	0.805	0.631	0.651						
SW 900	0.518	0.536	0.493	0.519	0.495				0.147	0.175	0.177	0.18	0.187						

From the supplement of paper PMC10307832
